Assay results as given in patent publication US11014911B2, “CDK2 inhibitors” (Pfizer Inc., priority 2019, dated 2021).

What was measured:
[1] = target: CDK2/Cyclin E1 full length (Homo sapiens (Human), UniProt P24941); assay: CDK2/Cyclin E1 full length mobility shift assay; assay type: biochemical
[2] = target: CDK9 (Homo sapiens (Human), UniProt P50750); assay: CDK9 biochemical assay
[3] = target: GSK3β (H350L) (Homo sapiens (Human), UniProt P49841); details: read-out: GSK3β Ki
Protocol: The assay was initiated with the addition of ATP, following 15 minutes pre-incubation of enzyme and inhibitor at room temperature in the reaction mixture. The reaction was stopped after 30 minutes at room temperature by the addition of 50 μL of 80 mM EDTA.

[4] = target: CDK1/cyclin A2 (Homo sapiens (Human), UniProt P06493); assay: CDK1/cyclin A2 biochemical assay
[5] = target: CDK6/cyclin D3 (Homo sapiens (Human), UniProt Q00534); assay: CDK6/Cyclin D3 mobility shift assay; details: Biochemical Assay: CDK6/cyclin D3
Excerpt: CDK6/Cyclin D3 Mobility Shift Assay

Sequence of CDK1/cyclin A2 (P06493 whole entry, looked up): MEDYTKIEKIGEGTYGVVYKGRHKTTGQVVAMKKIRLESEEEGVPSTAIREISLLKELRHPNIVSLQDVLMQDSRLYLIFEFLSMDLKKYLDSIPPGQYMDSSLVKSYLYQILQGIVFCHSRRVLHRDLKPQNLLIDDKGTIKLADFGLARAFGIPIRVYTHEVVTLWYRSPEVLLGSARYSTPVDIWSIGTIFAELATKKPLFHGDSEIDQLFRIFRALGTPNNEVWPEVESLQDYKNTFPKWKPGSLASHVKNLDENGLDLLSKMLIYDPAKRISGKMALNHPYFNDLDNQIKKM
Sequence of CDK1/cyclin A2 (P20248 whole entry partner, looked up): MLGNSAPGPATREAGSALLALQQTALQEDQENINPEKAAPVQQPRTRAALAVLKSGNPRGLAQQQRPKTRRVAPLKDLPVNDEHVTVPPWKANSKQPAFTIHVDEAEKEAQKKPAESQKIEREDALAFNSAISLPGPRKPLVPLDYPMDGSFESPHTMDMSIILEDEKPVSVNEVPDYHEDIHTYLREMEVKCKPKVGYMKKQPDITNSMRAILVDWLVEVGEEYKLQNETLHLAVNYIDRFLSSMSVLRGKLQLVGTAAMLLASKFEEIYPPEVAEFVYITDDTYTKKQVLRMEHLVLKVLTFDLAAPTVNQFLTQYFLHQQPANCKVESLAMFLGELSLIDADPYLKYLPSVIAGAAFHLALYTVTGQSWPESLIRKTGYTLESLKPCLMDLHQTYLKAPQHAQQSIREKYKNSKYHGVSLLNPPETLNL
Sequence of CDK6/cyclin D3 (Q00534 whole entry, looked up): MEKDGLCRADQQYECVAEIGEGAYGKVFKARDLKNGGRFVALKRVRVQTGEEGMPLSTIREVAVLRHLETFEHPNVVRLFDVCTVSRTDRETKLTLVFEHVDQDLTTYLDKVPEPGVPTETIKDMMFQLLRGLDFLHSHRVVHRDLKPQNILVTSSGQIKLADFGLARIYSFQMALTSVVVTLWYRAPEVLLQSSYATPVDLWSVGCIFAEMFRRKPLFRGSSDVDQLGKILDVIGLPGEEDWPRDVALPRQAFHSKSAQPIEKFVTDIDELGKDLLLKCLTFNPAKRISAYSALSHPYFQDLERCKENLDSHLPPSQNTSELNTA
Sequence of CDK6/cyclin D3 (P30281 whole entry partner, looked up): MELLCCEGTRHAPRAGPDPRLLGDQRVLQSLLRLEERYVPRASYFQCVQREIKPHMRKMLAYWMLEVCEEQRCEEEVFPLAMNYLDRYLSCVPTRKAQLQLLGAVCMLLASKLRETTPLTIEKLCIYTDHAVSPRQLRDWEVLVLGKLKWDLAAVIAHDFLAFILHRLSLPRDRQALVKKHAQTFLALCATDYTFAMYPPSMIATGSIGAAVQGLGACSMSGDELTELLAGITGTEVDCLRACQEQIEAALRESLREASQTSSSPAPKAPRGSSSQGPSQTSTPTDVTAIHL
Sequence of GSK3β (H350L) (P49841 whole entry, stated change not applied): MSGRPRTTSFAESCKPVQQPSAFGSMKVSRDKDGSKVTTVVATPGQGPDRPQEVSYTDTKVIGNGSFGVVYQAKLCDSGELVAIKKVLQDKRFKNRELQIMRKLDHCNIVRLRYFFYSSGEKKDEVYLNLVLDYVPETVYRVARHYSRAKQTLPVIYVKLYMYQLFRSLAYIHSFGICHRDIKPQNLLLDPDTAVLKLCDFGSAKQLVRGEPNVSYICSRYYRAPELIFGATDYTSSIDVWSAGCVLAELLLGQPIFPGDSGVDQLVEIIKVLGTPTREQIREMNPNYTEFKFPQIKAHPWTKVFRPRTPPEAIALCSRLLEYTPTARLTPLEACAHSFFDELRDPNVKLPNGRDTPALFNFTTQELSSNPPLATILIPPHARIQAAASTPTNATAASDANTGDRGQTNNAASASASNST
Sequence of CDK9 (P50750 whole entry, looked up): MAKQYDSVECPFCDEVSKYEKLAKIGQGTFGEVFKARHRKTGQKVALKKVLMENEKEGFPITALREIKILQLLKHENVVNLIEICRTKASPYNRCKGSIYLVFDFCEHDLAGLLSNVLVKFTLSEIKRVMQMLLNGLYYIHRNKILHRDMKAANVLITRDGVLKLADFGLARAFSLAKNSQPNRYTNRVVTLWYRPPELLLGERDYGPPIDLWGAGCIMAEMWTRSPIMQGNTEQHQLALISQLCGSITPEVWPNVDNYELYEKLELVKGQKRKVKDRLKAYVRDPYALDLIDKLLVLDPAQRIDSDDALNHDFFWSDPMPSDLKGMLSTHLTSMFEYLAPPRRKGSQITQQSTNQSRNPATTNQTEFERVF
Sequence of CDK9 (O60563 whole entry partner, looked up): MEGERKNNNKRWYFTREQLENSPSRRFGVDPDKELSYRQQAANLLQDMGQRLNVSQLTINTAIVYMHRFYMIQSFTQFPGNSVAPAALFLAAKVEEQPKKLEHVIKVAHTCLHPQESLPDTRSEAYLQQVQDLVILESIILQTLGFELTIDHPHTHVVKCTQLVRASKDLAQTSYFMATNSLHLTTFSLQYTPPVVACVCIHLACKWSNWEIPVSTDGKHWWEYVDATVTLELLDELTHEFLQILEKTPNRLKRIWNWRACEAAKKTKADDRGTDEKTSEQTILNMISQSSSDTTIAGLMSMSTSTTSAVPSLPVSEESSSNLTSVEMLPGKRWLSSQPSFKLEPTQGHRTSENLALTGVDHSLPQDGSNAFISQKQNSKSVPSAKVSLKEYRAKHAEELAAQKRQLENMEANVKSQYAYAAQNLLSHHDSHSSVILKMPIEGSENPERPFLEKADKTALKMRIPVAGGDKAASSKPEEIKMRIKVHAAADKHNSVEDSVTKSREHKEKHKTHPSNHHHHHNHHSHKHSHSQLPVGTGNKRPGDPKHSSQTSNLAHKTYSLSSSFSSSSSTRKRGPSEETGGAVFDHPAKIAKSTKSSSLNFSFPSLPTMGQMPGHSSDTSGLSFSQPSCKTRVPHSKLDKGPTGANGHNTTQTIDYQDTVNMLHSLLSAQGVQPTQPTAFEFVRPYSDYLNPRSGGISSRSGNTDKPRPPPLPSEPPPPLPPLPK

SMILES: Cc1cc(CC(=O)Nc2cc([C@H]3CC[C@@H](OC(=O)NC4(C)CC4)C3)[nH]n2)on1 [Example 15, (1R,3S)-3-(3-{[(3-methyl-1,2-oxazol-5-yl)acetyl]amino}-1H-pyrazol-5-yl)cyclopentyl (1-methylcyclopropyl)carbamate]
- Ki [1]: 0.17 nM
- Ki [2]: 6.3 nM
- Ki [3]: 29.3 nM
- Ki [4]: 16.4 nM
- Ki [5]: 58.6 nM
